Test results as given in paper PMC12549564, “A thermo-sensitive peptide hydrogel loaded with paclitaxel and antimony nanosheets for synergistic photothermal-chemotherapeutic treatment of breast cancer” (Frontiers in Pharmacology, 2025).

Legend:
Format in all cases: physicochemical
[1] = Concentration study: solubility of TSP-5 in water; conditions: for Solubility of TSP-5: aqueous solution, pH 7.4, 25 °C
Experimental: Concentration study: At room temperature (25 °C), aqueous solutions of TSP-5 was prepared at concentrations of 15 mg/mL, 20 mg/mL, 25 mg/mL and 30 mg/mL, respectively, and adjusted to pH 7.4 with NaOH (0.5 M) and HCl (0.1 M). Gel formation was assessed via vial inversion.

[2] = Temperature study: gelation of TSP-5, vial inversion; conditions: for Gelation state: TSP-5 aqueous solution 20 mg/mL
Experimental: (§1) The gelation behavior of TSP-5 was evaluated at various concentrations, temperatures, and AM concentrations. Gel formation was assessed via vial inversion.
(§2) Temperature study: Aqueous solutions of TSP-5 (20 mg/mL) were prepared and then placed in water bath at 30 °C, 37 °C, 40 °C, 45 °C, 50 °C and 55 °C respectively to observe the gelatinization.

[3] = AM concentration study: gelation time of TSP-5 loaded with AM; conditions: TSP-5 20 mg/mL
Experimental: as §1
AM concentration study: Aqueous solutions of TSP-5 (20 mg/mL) was prepared at 25 °C and AM suspension of different concentrations (0.2, 0.4, 0.6, 0.8 and 1.0 mg/mL) was added. The sample was then placed in a water bath at 37 °C and 45 °C respectively to observe the gelatinization.

[4] = DLS particle size of TSP-5 hydrogel at different temperatures
[5] = Temperature study: gelation of TSP-5, vial inversion; parameters: key: L: liquid; IS: insoluble; SS: slightly soluble; conditions: TSP-5 20 mg/mL, water bath 30 °C
Experimental: as §1, §2

[6] = as above; parameters: key: L: liquid; VL: viscous liquid; SG: stable gel; UG: unstable gel; conditions: TSP-5 20 mg/mL, water bath 40 °C
Experimental: as §1, §2

[7] = PTX release from hydrogel in vitro; conditions: hydrogel 20 mg/mL TSP-5, 2 mg/mL PTX, 0.6 mg/mL AM, PBS pH 7.4, 37 °C, 120 rpm, 7 days, HPLC, n = 3
Experimental: Gel sample (100 μL; 20 mg/mL TSP-5, 2 mg/mL PTX, 0.6 mg/mL AM) was prepared at 37 °C in a 1.5 mL EP tube. PBS (pH 7.4) was used to carefully wash the surface of the sample, and the cleaning solution was collected. The content of PTX not encapsulated was then determined by HPLC, and the encapsulation rate was calculated according to the formula: Encapsulation rate (%) = (PTX total –PTX in cleaning solution )/PTX total × 100%.
1 mL PBS (pH 7.4) was added as release medium, and the EP tube was placed in a thermostatic oscillator (120 rpm, 37 °C). All the release solution were carefully collected at different time points (0.5, 2, 4, 8, 12, 24, 48, 72, 96, 120, 144 and168 h), and the same volume of fresh release media was added. For the laser group, samples were irradiated (808 nm, 1 W/cm^2, 5 min) before each sampling. PTX release was quantified by HPLC.

[8] = TSP-5 20 mg/mL, water bath 37 °C

Ac-DDIIIVPGVGK-NH2 [TSP-5, Ac-DDIII-VPGVG-K-NH2]
Solubility of TSP-5 ([1]; peptide 15 mg/mL): L (liquid) | Solubility of TSP-5 ([1]; peptide 20 mg/mL): L (liquid) | Solubility of TSP-5 ([1]; peptide 25 mg/mL): SS (slightly soluble) | Solubility of TSP-5 ([1]; peptide 30 mg/mL): IS (insoluble) | Hydrogel formation ([1]; pH 7.4, 15–30 mg/mL, 25 °C, vial inversion): no hydrogel formation was observed | Gelation: time given for SG (stable gel) [2, 8]: 32 min | Gelation: time given for VL (viscous liquid) [2, 8]: 10 min | Gelation state ([2]; pH 7.4, 37 °C): stable hydrogel | Gelation state ([2]; pH 7.4, 45 °C): completely viscous liquid | Gelation time: SG (stable gel) ([3]; AM 0.2 mg/mL, 37 °C): 40 min | Gelation time: VL (viscous liquid) ([3]; AM 0.2 mg/mL, 37 °C): 15 min | Gelation time: UG (unstable gel) ([3]; AM 0.2 mg/mL, 45 °C): 39 min | Gelation time: VL (viscous liquid) ([3]; AM 0.2 mg/mL, 45 °C): 3 min | Gelation time: SG (stable gel) ([3]; AM 0.4 mg/mL, 37 °C): 33 min | Gelation time: VL (viscous liquid) ([3]; AM 0.4 mg/mL, 37 °C): 14 min | Gelation time: UG (unstable gel) ([3]; AM 0.4 mg/mL, 45 °C): 33 min | Gelation time: VL (viscous liquid) ([3]; AM 0.4 mg/mL, 45 °C): 4 min | Gelation time: SG (stable gel) ([3]; AM 0.6 mg/mL, 37 °C): 30 min | Gelation time: VL (viscous liquid) ([3]; AM 0.6 mg/mL, 37 °C): 10 min | Gelation time: UG (unstable gel) ([3]; AM 0.6 mg/mL, 45 °C): 30 min | Gelation time: VL (viscous liquid) ([3]; AM 0.6 mg/mL, 45 °C): 2 min | Gelation time: SG (stable gel) ([3]; AM 0.8 mg/mL, 37 °C): 30 min | Gelation time: VL (viscous liquid) ([3]; AM 0.8 mg/mL, 37 °C): 9 min | Gelation time: UG (unstable gel) ([3]; AM 0.8 mg/mL, 45 °C): 30 min | Gelation time: VL (viscous liquid) ([3]; AM 0.8 mg/mL, 45 °C): 2 min | Hydrodynamic size (DLS) ([4]; 37 °C): ~1,300 nm | Hydrodynamic size (DLS) ([4]; 45 °C): ~350 nm | Gelation state [5]: L | Gelation state [6]: SG

CC(=O)O[C@H]1C(=O)[C@@]2(C)[C@H]([C@H](OC(=O)c3ccccc3)[C@]3(O)C[C@H](OC(=O)[C@H](O)[C@@H](NC(=O)c4ccccc4)c4ccccc4)C(C)=C1C3(C)C)[C@]1(OC(C)=O)CO[C@@H]1C[C@@H]2O [PTX, Paclitaxel]
Cumulative release of PTX from the hydrogel ([7]; with laser (808 nm, 1 W/cm^2, 5 min before each sampling)): 61.83% | Cumulative release of PTX from the hydrogel ([7]; without laser): 42.81%
